Experiment [1] deals with T1, SETD2 (Homo sapiens, UniProt Q9BYW2).
T1 construct: SETD2 catalytic SET domain (amino acids 1347–1711, UniProt No: Q9BYW2); made in house; host or cells: E. coli
T1 sequence (Q9BYW2 1347-1711): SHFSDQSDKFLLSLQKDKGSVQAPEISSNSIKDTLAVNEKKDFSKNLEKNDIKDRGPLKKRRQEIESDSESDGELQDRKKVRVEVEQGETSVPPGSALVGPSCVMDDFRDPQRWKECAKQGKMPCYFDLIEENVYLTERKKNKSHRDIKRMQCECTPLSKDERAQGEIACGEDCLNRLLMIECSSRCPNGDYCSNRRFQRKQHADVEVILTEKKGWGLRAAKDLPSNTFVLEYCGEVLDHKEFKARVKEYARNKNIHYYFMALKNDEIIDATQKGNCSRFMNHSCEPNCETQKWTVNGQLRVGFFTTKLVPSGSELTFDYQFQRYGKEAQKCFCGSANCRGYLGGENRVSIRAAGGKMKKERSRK
The experiment is described as follows: Peptide SPOT array methylation of H3K36 (29–43) variants, super-substrate design (Fig. 2a). Conditions: SPOT array; 0.76 µM radioactive AdoMet, 3–6 µM SETD2, 60 min, pH 9; autoradiography. The class given is biochemical. An excerpt: Based on these observations, we aimed to explore, if better substrates than H3K36 can be designed for SETD2. We synthesized peptide SPOT arrays including H3K36 (29–43) as a positive control and the H3K36A mutant as a negative control, in which up to 5 combined mutations were systematically introduced that converted the original H3K36 residues into residues that are more favored (Fig. 2a and Supplementary Table 1). This peptide array was methylated by SETD2 as described above and the methylation signal was captured by autoradiography.
Fig. 2 Design of an optimized SETD2 peptide substrate and analysis of its methylation. a Variants of the H3K36 (29–43) peptide containing up to five mutations (Supplementary Table 1) were synthesized on a cellulose membrane and methylated by SETD2. The signal of the transferred radioactive methyl groups was detected by autoradiography. Spots A1 and B15 contain the H3K36 sequence, A2 and B16 the H3K36A peptide. Two films with different exposure times are shown to visualize weaker methylated spots as well. b Comparison of the methylation of purified super-substrate (ssK36) and the H3K36 peptides. […] Methylation reactions were conducted using 20 µM peptide and 6 µM enzyme. The lower panels display autoradiography films after different exposure times allowing to compare the methylation levels of the different samples. For comparison, different dilutions of the methylated ssK36 were loaded as indicated. c Time course of ssK36 peptide methylation determined under single turnover conditions using 5 µM substrate and 6 µM enzyme. […] The gels with the radioactive ssK36 (5 µl loaded per well) and H3K36 peptides (20 µl loaded per well) were exposed together to the same x-ray film. […] An enlargement of the H3K36 data with adjusted y-axis scale is shown in Supplementary Fig. 3d.
(§1) Peptide arrays containing fifteen amino acid long peptides were synthesized using the SPOT synthesis method[48] with an Autospot peptide array synthesizer (Intavis AG, Köln, Germany). After synthesis, the obtained membranes were pre-incubated in methylation buffer (20 mM Tris/HCl pH 9, 0.01% Triton X-100, 10 mM DTT, 1.5 mM MgCl2) for 5 min on a shaker. Thereafter, the membranes were incubated in methylation buffer supplemented with 0.76 µM radioactively labeled AdoMet (PerkinElmer) and 3–6 µM SETD2 enzyme for 60 min on a shaker. After methylation, the membranes were washed 5 times for 5 min in wash buffer (100 mM NH4HCO3, 1% SDS) and incubated in amplify NAMP100V (GE Healthcare) for 5 min. This was followed by the exposure of the membranes to a hyperfilm^TM high performance autoradiography (GE Healthcare) film at −80 °C in the dark. The films were developed with an Optimax Typ TR machine after different exposue times. For quantification the signal intensities were measured with the Phoretix^TM software and analyzed with Microsoft Excel.

The target in experiment [2] is T1, SETD2. The experiment is described as follows: Peptide SPOT array methylation of reported SETD2 substrates. Particulars: SPOT array on cellulose membrane; 0.76 µM radioactive AdoMet, 3–6 µM SETD2, 60 min, pH 9; autoradiography. The experiment is classed as biochemical. As for the experimental part:
Next, the SETD2 activity was tested on peptide SPOT arrays containing fifteen amino acid long peptides immobilized on a cellulose membrane. As reported SETD2 substrates, the H3K36 (29–43), α -tubulin (33–47) and STAT1 (518–532) peptides (with the target lysine centered in each case) were included, and peptides with the corresponding target lysine mutated to alanine were used as negative controls. The peptide array was incubated in methylation buffer supplemented with SETD2 and radioactively labeled AdoMet. […] Methylation of the previously reported non-histone substrates α -tubulin and STAT1 was not detectable at the peptide level and, therefore, they were excluded from further investigation.
as §1
Supplementary Fig. 1: SETD2 protein and catalytic activity. a Purified His6-tagged SETD2 SET domain (1347-1711) was separated on an SDS-gel and […]
stained with Coomassie BB. […]
tubulin (33-47), STAT1 (518-532) and their corresponding target lysine to alanine mutant peptides were synthesized on a cellulose membrane. The membrane was incubated in methylation buffer supplemented with radioactively labeled AdoMet and SETD2. The signal of the transferred radioactive methyl groups was visualized by autoradiography.

Experiment [3] has as its target T1, SETD2. The experiment is described as follows: Peptide SPOT array target lysine methylation of selected non-histone peptides (Fig. 3b). The experiment is classed as biochemical. Particulars: Exp1–Exp3, 3–6 µM SETD2, 0.76 µM AdoMet, 60 min, pH 9.
From the text: However, we could identify 166 possible targets, which contain partial matches to the substrate specificity profile. The possible methylation of these 166 putative substrates was investigated at the peptide level. For this, fifteen amino acid long peptides containing the sequence of the non-histone targets surrounding the predicted target lysine were synthesized on a membrane. The H3K36 (29–43) peptide (spots A1, I9), the super-substrate peptide (spots A3, I11) and the corresponding lysine to alanine mutation peptides (spot A2, I10, and A4, I12) were included as positive and negative controls (Fig. 3a, Supplementary Fig. 4 and Supplementary Table 2). The methylation reactions and the detection of the methylation signals were performed in duplicates as described above. We observed that all of the investigated peptides were more weakly methylated than the super-substrate peptide. […] In the next step, 20 of the peptides were selected for further investigation based on the methylation intensity and the known functions of the proteins to confirm the methylation at the predicted target site. The peptides were synthesized on another membrane, now including the target lysine to alanine mutation control peptides in each case. The methylation reactions and the detection of the signal were conducted as described above (Fig. 3b, Supplementary Fig. 5 and Supplementary Table 3).
Fig. 3 Identification of non-histone substrates of SETD2. a Candidate non-histone peptide substrates were identified in the human proteome based on the SETD2 super-substrate specificity profile. The peptides were synthesized on a peptide SPOT array (Supplementary Table 2) and methylated by SETD2. As controls, the H3K36, H3K36A, ssK36 and ssK36A peptides were included on spots A1–A4 and I9–I12. The autoradiography image is an example of the obtained results. […] The quantification of the data of two experiments is shown in Supplementary Fig. 4. b Analysis of target lysine methylation of selected non-histone substrate peptides. Peptide SPOT arrays were synthesized containing the non-histone peptide substrates identified in panel A in addition to the lysine to alanine mutations presented on the array as every second spot (Supplementary Table 3). As controls, the H3K36, H3K36A, ssK36, and ssK36A mutant peptides were included on spot A1–A4 and C5–C8. The autoradiography image is an example of the obtained results. The quantification of the data of three experiments is shown in Supplementary Fig. 5. Peptides selected for furhter analysis are highlighted by blue circles. c Protein methylation of FBN1 and confirmation of the target lysine methylation. Both wild type (WT) and mutant (K666R) FBN1 were purified and equal amounts were methylated by SETD2 (2 µM). […] The size of FBN1 is indicated by an asterisk.
as §1

For experiment [4], the target named is T1, SETD2. The experiment is described as follows: Protein methylation assay (non-histone proteins, GST fusions, nucleosomes, H3.1). The class given is biochemical. Conditions: based on own results and literature data, ref [18],[19]. The source says:
The 9 new putative non-histone substrates of SETD2 were cloned into a pGEX-6p2 bacterial expression vector for protein expression. Six of them could be expressed and purified through glutathione sepharose beads (Table 1). For comparison, the super-substrate sequence was cloned with a […] GST-tag (ssK36-GST) to mimic the natural setting of the H3K36 site in the N-terminal tail of histone 3. Similar amounts of the purified non-histone substrate proteins and the ssK36-GST protein were loaded on an SDS-gel and stained with Coomassie BB (Supplementary Fig. 6a). Afterward protein methylation reactions were conducted using radioactively labeled AdoMet and the radioactive signal of the methyl group transfer was detected by autoradiography (Supplementary Fig. 6b). […] Next, we aimed to confirm the FBN1 methylation at the predicated target lysine K666. For this, a K666R mutation was introduced and the wildtype and mutant FBN1 proteins were purified by affinity chromatography. […]
Protein methylation reactions were performed in 40 µl methylation buffer containing 0.76 µM radioactive labeled AdoMet (PerkinElmer), approximately 20 µg of substrate protein and 6 µM SETD2 enzyme (if not otherwise indicated) for 3 h at 25 °C. […] The radioactive methylation signal was detected by a hyperfilm^TM high performance autoradiography film (GE Healthcare) at −80 °C in the dark. […]

Experiment [5] concerns the target T2, His6-tagged catalytic SET domain of SETD2 (amino acids 1347–1711) (human, UniProt Q9BYW2 1347-1711).
T2 construct: also called SET-domain containing protein 2; KMT3A; source: E. coli, purified (Ni-NTA beads)
T2 sequence (looked up): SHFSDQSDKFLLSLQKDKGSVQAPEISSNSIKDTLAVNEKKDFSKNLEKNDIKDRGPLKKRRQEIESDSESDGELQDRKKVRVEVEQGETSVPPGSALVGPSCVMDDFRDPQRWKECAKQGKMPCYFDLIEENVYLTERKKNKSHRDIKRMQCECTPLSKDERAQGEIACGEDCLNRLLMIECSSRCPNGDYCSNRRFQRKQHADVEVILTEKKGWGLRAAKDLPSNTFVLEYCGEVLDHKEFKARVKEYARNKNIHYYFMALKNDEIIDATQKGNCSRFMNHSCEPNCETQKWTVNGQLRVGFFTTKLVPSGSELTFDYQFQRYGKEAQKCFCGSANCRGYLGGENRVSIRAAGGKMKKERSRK
The experiment is described as follows: enzyme inhibition kinetics (competitive inhibition of peptide methylation); 20 µM ssK36 (29–43) substrate peptide, 6 µM SETD2, inhibitor peptide 0 to 320 µM, methylation buffer (20 mM Tris/HCl pH 9, 0.01% Triton X-100, 10 mM DTT, 1.5 mM MgCl2) with 0.76 µM radioactively labeled AdoMet, 25 °C, Tricine-SDS-PAGE and autoradiography; global fit to a competitive inhibition steady-state model. Particulars: both partners purified.

Several values for one entry are separate records, joined by “and”; a condition that tells them apart may be missing. Identical values can stand only once.

Regarding APAFGGVKKPHRYRP [T32F], the “peptide array methylation of H3K36 variants (in words)” value (“peptide array methylation” below) at SETD2 [1] is recorded as “stepwise improvement of activity with increasing number of mutations”.

As to “APATGGVAKPHRYRP [K36A, H3K36A mutant peptide, negative control, reference compound]”, at SETD2 [2], the “peptide spot methylation signal” value is recorded as “did not show a detectable peptide methylation signal”. The “Relative methylation signal, Average” value at SETD2 [3] is 0.2341 and 0.1607.

“APATGGVKKPHRYRP [H3K36, H3K36 (29–43) peptide on SPOT array, reference compound]”: the “peptide spot methylation signal” value on SETD2 [2] is “detectable methylation”. In addition, at SETD2 [3], the “Relative methylation signal, Average” value is 0.4318 and 0.3786.

Regarding APRFGGVKKPHRYRP [A31R/T32F], at SETD2 [1], the “peptide array methylation” value is reported as “stepwise improvement of activity with increasing number of mutations”.

As to APRFGGVKRPHRYRP [A31R/T32F/K37R], the “peptide array methylation” value on SETD2 [1] is given as “stepwise improvement of activity with increasing number of mutations”.

On to “DGQMPSDKTIGGGDD [α-tubulin (33–47), reported SETD2 substrate peptide, K40]”, for which the “peptide spot methylation signal” value at SETD2 [2] is recorded as “did not show a detectable peptide methylation signal”.

On to “STCYGGYKRGQCIKP [FBN1, Fibrillin-1 peptide, target lysine 666]”, for which the “Relative methylation signal, Average” value on SETD2 [3] was 0.6365. In addition, the “comparison of protein methylation efficiency” value at SETD2 [4] is “more efficiently methylated than H3, α -tubulin and STAT1”.

B1: ssK36M peptide (29–43), super-substrate peptide with the target lysine changed to methionine (peptide)
peptide: APRFGGVMRPNRYRP
notes: histone H3 residues 29–43 (UniProt P68431 printed for the parent H3K36 peptide) with the four super-substrate exchanges and K36M; source: synthetic peptide, bought: Innovative Peptide Solutions (Berlin)
In the case of B1, in experiment [5], the Ki worked out at 128 µM.

B2: H3K36M (27–43) peptide (peptide, UniProt P68431 28-44, looked up)
peptide: KSAPATGGVMKPHRYRP
notes: histone H3 residues 27–43 with K36M (the oncohistone mutation); source: synthetic peptide, bought: Intavis AG (Köln)
In the case of B2, the Ki in experiment [5] is 447 µM.

The Ki is a measure of affinity in units of concentration, obtained from inhibition or displacement.

The record behind these values is paper PMC7495481, “Sequence specificity analysis of the SETD2 protein lysine methyltransferase and discovery of a SETD2 super-substrate” (Communications Biology, 2020).
